# Paper PMC5956543, “Antimicrobial and antioxidant activities of triterpenoid and phenolic derivatives from two Cameroonian Melastomataceae plants: Dissotis senegambiensis and Amphiblemma monticola” (BMC Complementary and Alternative Medicine, 2018)
# Like-named read-outs stand apart in the source and are kept apart here.
# Tests used:
# S. aureus ATCC25923 = experiment: Broth microdilution antimicrobial assay (MIC/MMC); format: cell-based, Staphylococcus aureus; settings: for MIC / MBC: Staphylococcus aureus, 24 h; for MIC: 37 °C; for MBC: no growth after sub-culturing
# Description: (§1) The microorganisms used in this study include four bacterial (Staphylococcus aureus ATCC25923, methicillin sensitive S. aureus MSSA1, methicillin resistant S. aureus MRSA3 and methicillin resistant S. aureus MRSA4) and three yeast strains (Candida albicans ATCC10231, Candida tropicalis PK233 and Cryptococcus neoformans H99). These microorganisms were taken from our laboratory collection. The fungal and bacterial strains were grown at 37 °C and maintained on Sabouraud Dextrose Agar (SDA, Conda, Madrid, Spain) and nutrient agar (NA, Conda) slants respectively.
# (§2) The inocula of bacteria and yeasts were prepared from overnight cultures as previously described. Absorbance was read spectrophotometrically at 530 nm and 600 nm for yeasts and bacteria respectively. The final concentrations of microbial suspensions were 2.5 × 10^5 cells/mL for yeasts and 10^6 CFU/mL for bacteria.
# (§3) The antimicrobial activity was evaluated by determining the minimum inhibitory concentrations (MICs). MICs of extracts and compounds were determined by broth micro dilution. Each test sample was dissolved in 10% v/v aqueous dimethylsulfoxide (DMSO) to give a stock solution. This was serially diluted two-fold in Mueller-Hinton Broth (MHB) for bacteria and Sabouraud Dextrose Broth (SDB) for fungi to obtain a concentration range of 4096 to 0.25 μg/mL. Then, 100 μL of each sample concentration was added to respective wells (96-well micro plate) containing 90 μL of SDB/ MHB and 10 μL of inoculum to give final concentration ranges of 2048 to 4 μg/mL (for extracts) and 256 to 0.125 μg/mL (for compounds). Dilutions of nystatin (Sigma-Aldrich, Steinheim, Germany) and ciprofloxacin (Sigma-Aldrich, Steinheim, Germany) were used as positive controls for yeasts and bacteria respectively. Broth with 10 μL of DMSO was used as negative control. The cultured micro plates were covered; then, the contents of each well were mixed thoroughly using a plate shaker (Flow Laboratory, Germany) and incubated at 37 °C for 24 h (bacteria) and 48 h (yeasts) under shaking. After the incubation period, MICs were assessed visually and were taken as the lowest sample concentration at which there was no growth or virtually no growth. The lowest concentration that yielded no growth after the sub-culturing was considered as the minimum microbicidal concentrations (MMCs). All the tests were performed in triplicate.
# S. aureus MRSA3 = experiment: Broth microdilution antimicrobial assay (MIC/MMC); format: cell-based, Staphylococcus aureus; settings: for MBC / MIC: Staphylococcus aureus, 24 h; for MBC / MIC / MMC/MIC: S. aureus MRSA3; for MBC: no growth after sub-culturing; for MIC: 37 °C
# Description: as §1, §2, §3
# S. aureus MRSA4 = experiment: Broth microdilution antimicrobial assay (MIC/MMC); format: cell-based, Staphylococcus aureus; settings: for MBC / MIC: Staphylococcus aureus, 24 h; for MBC / MIC / MMC/MIC: S. aureus MRSA4; for MBC: no growth after sub-culturing; for MIC: 37 °C
# Description: as §1, §2, §3
# S. aureus MSSA1 = experiment: Broth microdilution antimicrobial assay (MIC/MMC); format: cell-based, Staphylococcus aureus; settings: for MIC / MBC: Staphylococcus aureus, 24 h; for MIC: 37 °C; for MBC: no growth after sub-culturing
# Description: as §1, §2, §3
# C. albicans ATCC10231 = experiment: Broth microdilution antimicrobial assay (MIC/MMC); format: cell-based, Candida albicans; settings: for MIC: 37 °C, 48 h; for MMC: no growth after sub-culturing
# Description: as §1, §2, §3
# C. tropicalis PK233 = experiment: Broth microdilution antimicrobial assay (MIC/MMC); format: cell-based, Candida tropicalis; settings: for MIC: 37 °C; for MIC / MFC: 48 h
# Description: as §1, §2, §3
# C. neoformans H99 = experiment: Broth microdilution antimicrobial assay (MIC/MMC); format: cell-based, Cryptococcus neoformans; settings: for MIC: 37 °C; for MIC / MFC: 48 h
# Description: as §1, §2, §3
# [1] = tested on: bacterial and fungal strains; experiment: Broth microdilution MIC, range over all tested strains; format: cell-based
# Description: as §1, §2, §3
# [2] = Ferric reducing antioxidant power (FRAP) assay; settings: Perl's Prussian blue at 700 nm; Fig. 2; BHT positive control
# Description: The FRAP was determined by the Fe^3+-Fe^2+ transformation in the presence of extracts and compounds as previously described. The Fe^2+ was monitored by measuring the formation of Perl’s Prussian blue at 700 nm. Butylated hydroxytoluene (BHT) was used as a positive control. All the tests were performed in triplicate.
# [3] = DPPH free radical scavenging assay; settings: Fig. 3; vitamin C standard
# Description: The free radical scavenging activity of extracts and compounds was evaluated according to described methods. The EC50 (μg/ml), which is the amount of sample necessary to inhibit by 50% the absorbance of free radical DPPH was calculated. Vitamin C was used as a standard control. All the analyses were carried out in triplicate.
# S. aureus strains = experiment: Broth microdilution MIC, range over the S. aureus strains; format: cell-based; settings: Staphylococcus aureus; range over the four S. aureus strains
# Description: as §1, §2
# The antimicrobial activity was evaluated by determining the minimum inhibitory concentrations (MICs). MICs of extracts and compounds were determined by broth micro dilution. Each test sample was dissolved in 10% v/v aqueous dimethylsulfoxide (DMSO) to give a stock solution. […] After the incubation period, MICs were assessed visually and were taken as the lowest sample concentration at which there was no growth or virtually no growth. […]
# [4] = Candida albicans, read-out: MIC
# [5] = Candida tropicalis, read-out: MIC
# [6] = Candida tropicalis, no growth after sub-culturing
# [7] = Cryptococcus neoformans, read-out: MIC
# [8] = Cryptococcus neoformans, no growth after sub-culturing
# [9] = range over all bacterial and fungal strains, read-out: MIC
MIC (S. aureus ATCC25923) [µg/mL],MIC (S. aureus MRSA3) [µg/mL],MIC (S. aureus MRSA4) [µg/mL],MIC (S. aureus MSSA1) [µg/mL],MIC (C. albicans ATCC10231; [4]) [µg/mL],MIC (C. tropicalis PK233; [5]) [µg/mL],MIC (C. neoformans H99; [7]) [µg/mL],MMC/MIC (S. aureus ATCC25923),MMC/MIC (S. aureus MRSA3),MMC/MIC (S. aureus MRSA4),MMC/MIC (S. aureus MSSA1),MMC/MIC (C. tropicalis PK233),MMC/MIC (C. neoformans H99),SMILES,MBC (S. aureus ATCC25923) [µg/mL],MBC (S. aureus MRSA3) [µg/mL],MBC (S. aureus MRSA4) [µg/mL],MBC (S. aureus MSSA1) [µg/mL],MMC (C. albicans ATCC10231) [µg/mL],MFC (C. tropicalis PK233; [6]) [µg/mL],MFC (C. neoformans H99; [8]) [µg/mL],other results
256,128,128,128,256,256,128,,,,,,,"C[C@H]1[C@H](C)CC[C@]2(C(=O)O)CC[C@]3(C)C(=CC[C@@H]4[C@@]5(C)CC[C@H](O)C(C)(C)[C@@H]5CC[C@]43C)[C@H]12 [Compound 3, ursolic acid]",> 256,> 256,> 256,> 256,> 256,> 256,> 256,"antimicrobial activity (in words) ([1]; all the tested bacterial and fungal species): active against all the tested bacterial and fungal species; MIC [1, 9]: 128 to 256 µg/mL"
32,16,32,16,32,32,32,1,2,2,1,2,1,"COc1cc2c(=O)oc3c(OC)c(O)cc4c(=O)oc(c1O)c2c34 [Compound 7, 3,4′-di-O-methylellagic acid]",32,32,64,16,64,64,32,"activity against methicillin-resistant S. aureus (in words) (S. aureus MRSA3; MRSA3): prominent activity; activity against methicillin-resistant S. aureus (in words) (S. aureus MRSA4; MRSA4): prominent activity; MMC/MIC (C. albicans ATCC10231): 2; reducing power (FRAP, in words) [2]: lowest reducing power; DPPH radical-scavenging activity (in words) [3]: highest EC50; MIC (S. aureus strains): 16 to 32 µg/mL; MIC [1, 9]: 16 to 32 µg/mL"
1,16,32,1,,,,1,1,1,1,,,"O=C(O)c1cn(C2CC2)c2cc(N3CCNCC3)c(F)cc2c1=O [Ciprofloxacin, reference compound]",1,16,32,1,,,,
,,,,,,,,,,,,,"CC1(C)CC[C@]2(C(=O)O)CC[C@]3(C)C(=CC[C@@H]4[C@@]5(C)CC[C@H](O)C(C)(C)[C@@H]5CC[C@]43C)[C@@H]2C1 [Compound 13, oleanolic acid]",,,,,,,,"reducing power (FRAP, in words) [2]: not active; DPPH radical-scavenging activity (in words) [3]: not active"
32,64,128,32,128,16,32,2,2,2,1,1,1,"COC(=O)c1cc(O)c(O)c(O)c1-c1c(C(=O)OC)cc(O)c(O)c1O [Compound 8, dimethyl 4,4′,5,5′,6,6′-hexahydroxybiphenyl-2,2′-dicarboxylate]",64,128,256,32,> 256,16,32,"reducing power (FRAP, in words) [2]: highest reducing power; DPPH radical-scavenging activity (in words) [3]: lowest EC50; MIC [1, 9]: 8 to 128 µg/mL"
256,> 256,> 256,256,> 256,256,256,,,,,,,"C=C(C)[C@@H]1CC[C@]2(C)CC[C@]3(C)[C@H](CC[C@@H]4[C@@]5(C)CC[C@H](O)C(C)(C)[C@@H]5CC[C@]43C)[C@@H]12 [Compound 9, lupeol]",> 256,> 256,> 256,> 256,,> 256,> 256,"reducing power (FRAP, in words) [2]: not active; DPPH radical-scavenging activity (in words) [3]: not active"
32,64,128,64,64,64,64,2,2,1,1,1,2,"O=C(C=Cc1ccc(O)cc1)OCC1OC(Oc2c(-c3ccc(O)cc3)oc3cc(O)cc(O)c3c2=O)C(O)C(O)C1O (stereo not drawn) [Compound 6, trans-tiliroside]",64,128,128,64,64,64,128,"MMC/MIC (C. albicans ATCC10231): 1; MIC [1, 9]: 32 to 128 µg/mL"
> 256,> 256,> 256,> 256,256,256,128,,,,,,,"CC[C@H](CC[C@@H](C)[C@H]1CCC2C3CC=C4C[C@@H](O[C@@H]5O[C@H](CO)[C@@H](O)[C@H](O)[C@H]5O)CC[C@]4(C)C3CC[C@@]21C)C(C)C (stereo partly drawn) [Compound 4, sitosterol-3-O-β-D-glucopyranoside]",> 256,> 256,> 256,> 256,> 256,> 256,> 256,"reducing power (FRAP, in words) [2]: not active; DPPH radical-scavenging activity (in words) [3]: not active"

SMILES,MIC (S. aureus ATCC25923) [µg/mL],MIC (S. aureus MRSA3) [µg/mL],MIC (S. aureus MRSA4) [µg/mL],MIC (S. aureus MSSA1) [µg/mL],MIC (C. albicans ATCC10231; [4]) [µg/mL],MIC (C. tropicalis PK233; [5]) [µg/mL],MIC (C. neoformans H99; [7]) [µg/mL],MMC/MIC (S. aureus ATCC25923),MMC/MIC (S. aureus MRSA3),MMC/MIC (S. aureus MRSA4),MMC/MIC (S. aureus MSSA1),MMC/MIC (C. tropicalis PK233),MMC/MIC (C. neoformans H99),MBC (S. aureus ATCC25923) [µg/mL],MBC (S. aureus MRSA3) [µg/mL],MBC (S. aureus MRSA4) [µg/mL],MBC (S. aureus MSSA1) [µg/mL],MMC (C. albicans ATCC10231) [µg/mL],MFC (C. tropicalis PK233; [6]) [µg/mL],MFC (C. neoformans H99; [8]) [µg/mL],other results
"C[C@@H]1[C@H](O)[C@@H](C)/C=C/C=C/CC/C=C/C=C/C=C/C=C/C(O[C@H]2O[C@H](C)[C@@H](O)[C@H](N)[C@@H]2O)CC2O[C@](O)(CC(O)C(O)CCC(O)CC(O)CC(O)CC(=O)O[C@H]1C)CC(O)C2C(=O)O (some centres unmarked) [nystatin, reference compound]",,,,,,,,,,,,2,1,,,,,2,,,MMC/MIC (C. albicans ATCC10231): 1; MIC (C. albicans ATCC10231): 2 µg/mL; MIC (C. tropicalis PK233): 0.5 µg/mL; MMC (C. tropicalis PK233; no growth after sub-culturing): 1 µg/mL; MIC (C. neoformans H99): 1 µg/mL; MMC (C. neoformans H99; no growth after sub-culturing): 1 µg/mL
"O=c1cc(-c2ccc(O)cc2)oc2c([C@@H]3O[C@H](CO)[C@@H](O)[C@H](O)[C@H]3O)c(O)cc(O)c12 [Compound 5, vitexin]",64,64,128,64,128,64,128,2,2,2,2,2,1,128,128,256,128,256,128,128,MMC/MIC (C. albicans ATCC10231): 2; MIC [1]: 64 to 128 µg/mL
